Measured values as given in patent US20240342195A1, “AGENT FOR COMBINATION USE COMPRISING T CELL AND/OR B CELL ACTIVITY REGULATOR” (TOKAI UNIVERSITY EDUCATIONAL SYSTEM, priority 2021, published 2024).

Legend:
BeWo = experiment: proliferating ability of cell line cultured with P4 or COR; assay type: cell-based, human; settings: 200 μM or less, cultured 10 days
Procedure: (§1) Each of human choriocarcinoma cell line JEG-3, BeWo, and embryonic kidney cell line HEK293 was cultured for 10 days at 37° C. in 5% CO2 in a 10% Fetal Calf Serum (FCS)-containing DMEM (Gibuco) to which water-soluble progesterone (P4; water soluble) (Sigma) or cortisol (COR) (Sigma) was added in various concentrations. Each of mouse myeloma cell line P3-X63-Ag8-U1 (P3X) and mouse lymphoma cell line A20 was cultured for 3 days at 37° C. in 5% CO2 in 10% FCS-containing RPMI 1640 to which P4 or COR was added in various concentrations. Proliferation of the cells was evaluated by measuring the number of the cells.

HEK293 = experiment: as above; assay type: cell-based, human; settings: 200 μM or less, cultured 10 days
Procedure: as §1

JEG-3 = experiment: as above; assay type: cell-based, human; settings: 200 μM or less, cultured 10 days
Procedure: as §1

B cell in PBMCs [1] = experiment: restimulation experiment (transient vs continuous P4/COR), PD-L1 on B cells; assay type: cell-based, human; settings: addition of 200 μM; TSST-1 3 days
Procedure: (§2) In a restimulation experiment, PBMCs were cultured for 6 hours at 37° C. in 5% CO2 in 10% FCS-containing RPMI 1640 to which 200 μM P4 or COR was added. These cells were washed, adjusted to a final concentration of 1×10^6/mL, and cultured again in the presence or absence of 200 μM P4 or COR with stimulation by 1 μM TSST-1. After 72 hours, the resultant cells were collected to be analyzed by FCM.

[2] = system: Hu-PBMC-NOG (GVHD onset model); experiment: GVHD onset model: human PBMCs transplanted to NOG mouse, P4 or COR administered subcutaneously; assay type: in vivo; settings: 2 mg/head subcutaneously twice a week, 4 weeks
Procedure: In the analysis using the GVHD model, PBMCs prepared in the same manner as described above were washed with PBS, and 2.5×10^6 PBMCs were intravenously transplanted to each 8- to 9-week-old NOG mouse. […] At the same time as the administration, the weight was measured. After 4 weeks, the mouse was anesthetized to collect heart blood, and euthanized. From various lymphoid organs excised, human cells were prepared, hemolyzed, and then subjected to FCM. Besides, the lung and the liver were excised, and immunohistochemically stained as follows. A tissue of the mouse was immobilized with 20% formalin (Wako Pure Chemical Industries, Ltd.), and embedded in paraffin. The obtained paraffin block was sliced, and the resultant was subjected to deparaffinization, mounted on a slide glass, and stained with hematoxylin and eosin (HE). In immunohistochemical staining with an anti-human CD45 antibody, the slide was subjected to a heat treatment at 97° C. for 20 minutes, and subjected to an endogenous peroxidase treatment through a reaction with 0.3% H2O2/MetOH at room temperature for 10 minutes. Thereafter, the resultant was blocked with 1% goat serum, and anti-human CD45 (Dako) was added thereto, followed by a reaction overnight at 4° C. The resultant slide was washed 3 times with 0.01 M PBS for 5 minutes, and colored with a DAB solution. The resultant was washed with running water for 3 minutes, and stained with hematoxylin, followed by dehydration and penetration/encapsulation.

[3] = system: CD4 and CD8 T cells in PBMCs; experiment: restimulation experiment (transient vs continuous P4/COR), PD-1/PD-L1 on T cells; assay type: cell-based, human; settings: TSST-1 3 days
Procedure: as §2

A20 = experiment: proliferating ability of cell line cultured with P4 or COR; assay type: cell-based, mouse; settings: 2 μM or less, cultured 3 days
Procedure: as §1

P3-X63-Ag8-U1 (P3X) = experiment: as above; assay type: cell-based, mouse; settings: 2 μM or less, cultured 3 days
Procedure: as §1

[4] = system: Human peripheral blood mononuclear cells (PBMCs); experiment: number of cells of TSST-1-stimulated PBMCs cultured with P4 or COR; assay type: cell-based; settings: PBMCs + TSST-1; 3 days
Procedure: (§3) The PBMCs (final concentration: 1×10^6/mL) were cultured for 3 days at 37° C. in 5% CO2 in 10% FCS-containing RPMI 1640 to which P4 or COR was added in various concentrations with stimulation by 1 μg/mL of toxic shock syndrome toxin-1 (TSST-1). These cells were collected, washed with PBS, and dispensed into a Fisher tube in an amount of 1×10^6 cells/tube. For analysis of a human cell surface marker, a fluorescent-labeled anti-human monoclonal antibody (mAbs) was used. The cells were stained with the mAbs, a reaction was performed for 15 minutes at 4° C., and the resultant was washed with PBS containing 1% (w/v) BSA. Then, the resultant was analyzed by FACS Fortessa, or FACS Verse (BD Bioscience, Franklin Lakes, NJ). In the analysis, a leukocyte gated or lymphocyte gated cells were further gated by expression of human CD45, and then the analysis was performed. A culture supernatant was collected, and 25 μL thereof was dispensed to quantitatively determine cytokine with Legend Plex™ kit from BioLegend.

B cell in PBMCs [5] = experiment: FCM analysis of PD-1 on B cells of TSST-1-stimulated PBMCs; assay type: cell-based, human; settings: TSST-1 and P4/COR stimulation; data not shown
Procedure: as §3

[6] = system: CD4 and CD8 T cells in PBMCs; experiment: FCM analysis of activation/exhaustion markers (CD25, PD-1) on T cells of TSST-1-stimulated PBMCs; assay type: cell-based, human; settings: 20 to 200 μM
Procedure: as §3

[7] = system: B cell (CD19 gated) in human PBMCs; experiment: atezolizumab addition experiment, PD-L1/PD-1 expression on B cell by FCM; assay type: cell-based; settings: 3 days
Procedure: (§4) As for an experiment of atezolizumab addition, 0 to 200 μM P4 or COR, 1 μM TSST-1, and 100 μg/mL atezolizumab were added to PBMCs, and the resultant was cultured for 72 hours at 37° C. in 5% CO2, followed by analysis by FCM.

PBMC-NOG-hIL-4-Tg mouse = experiment: transplantation of P4/COR-cultured PBMCs to NOG-hIL-4-Tg mouse immunized with CH401MAP; assay type: in vivo; settings: PBMCs cultured with 200 μM for 6 hours before transplantation
[8] = system: T cell (CD3 gated) in human PBMCs; experiment: atezolizumab addition experiment, PD-L1/PD-1 expression on T cell by FCM; assay type: cell-based; settings: 3 days
Procedure: as §4

humanized mouse = experiment: PD-L1/PD-1 expression in humanized mouse in vivo after atezolizumab administration; settings: data not shown
[9] = system: human breast cancer cell line MDA-MB-231; experiment: cancer-bearing CMV-NOG-hIL-4-Tg mouse with MDA-MB-231 and human PBMCs transplanted; assay type: in vivo
Procedure: 5×10^6 MDA-MB231 was subcutaneously administered to a ventral portion of a 6- to 7-week-old NOG-hIL-4-Tg mouse (a hIL-4 concentration in blood of 100 pg/mL or more). Diameters of the tumor along the ventral and in a direction at a right angle to the ventral were measured with a caliper every 2 days from one week after the administration, and the product thereof was defined as the size of the tumor. Two weeks after the tumor transplantation, 5×10^6 PBMCs were intravenously transplanted to the cancer-bearing mice and non-cancer-bearing mice as a control group. The measurement of the tumor diameters was similarly continued after the PBMC transplantation. The non-cancer bearing mice were divided into two groups, and PBS or atezolizumab ([…], 3 times (every 10 days)) was administered to each group. The cancer-bearing mice were divided into three groups, and PBS, atezolizumab ([…], 3 times (every 10 days)), or liposome (amount equivalent to 225 μg of atezolizumab and 40 μg of P4/dose, 6 times (every 5 days)) was administered to each group.
After 4 weeks, the mice were anesthetized to collect heparinized blood, and were euthanized. From various lymph tissues collected, cells were collected, and erythrocytes were removed therefrom with a hemolysis buffer to prepare a cell suspension. The number of cells therein was counted, and a human leukocyte fraction was subjected to flowcytometry (FCM) analysis. A tumor tissue was used for immunohistochemical staining.
For human immunocytochemistry, the same antibodies as those used in Example 1 were used. Cells were reacted with an appropriate amount of each of various, fluorescent-labeled antibodies for 15 minutes at 4° C., and washed with PBS containing 1% BSA. The resultant cells were analyzed with FACS Fortessa or Verse (manufactured by BD Bioscience). Living cells were gated, and human CD45-positive cells were further gated to obtain a human leukocyte fraction. These cells were further divided with a cell surface marker to obtain lymphocyte subsets. For data analysis, FlowJo (BD) was used.
A tissue of the mouse was immobilized with 20% formalin (manufactured by Wako Pure Chemical Industries, Ltd.), and embedded in paraffin. The resultant paraffin block was sliced, and the resultant was subjected to deparaffinization, mounted on a slide glass, and stained with hematoxylin and eosin (HE). In immunohistochemical staining with an anti-human CD8 antibody, the slide was subjected to a heat treatment at 120° C. for 20 minutes, and subjected to an endogenous peroxidase treatment through a reaction with 0.3% H2O2/MetOH at room temperature for 10 minutes. Thereafter, the resultant was blocked with 1% goat serum, and anti-human CD8 (manufactured by Dako) was added thereto, followed by a reaction at 25° C. for 60 minutes. The resultant slide was washed 3 times with 0.01 M PBS for 5 minutes, followed by a reaction at 25° C. for 60 minutes with simple stain MAX-PO (manufactured by Nichirei Biosciences Inc.). The resultant slide was washed 3 times with 0.01 M PBS for 5 minutes, and colored with a DAB solution. The resultant was washed with running water for 3 minutes, and stained with hematoxylin, followed by dehydration and penetration/encapsulation.

[10] = atezolizumab 450 pg/head/dose 3 times, liposome equivalent to 225 μg atezolizumab and 40 μg P4/dose 6 times, 4 weeks

C[C@]12CCC(=O)C=C1CC[C@@H]1[C@@H]2[C@@H](O)C[C@@]2(C)[C@H]1CC[C@]2(O)C(=O)CO [COR, cortisol]
cell proliferating ability (BeWo): minimally changed | cell proliferating ability (HEK293): minimally changed | cell proliferating ability (JEG-3): minimally changed | PD-L1 expression in B cell (B cell in PBMCs [1]): tended to reduce PD-L1 expression | GVHD symptoms [2]: reduced GVHD symptoms | lymphocyte engraftment [2]: lymphocyte engraftment failure was also caused | lymphocytes [2]: reduced lymphocytes | ratio of later-phase activated (PD-1/PD-L1-positive) cells ([3]; CD4 and CD8 T cells, continuously added, 200 μM): not suppressed as much as that obtained by P4 addition | CD8 T cell activation vs control group ([3]; transiently added (200 μM 6 hours, washed)): significantly suppressed | proliferation (A20): almost completely suppressed | proliferation (P3-X63-Ag8-U1 (P3X)): almost completely suppressed | number of cells vs control group [4]: substantially no difference | PD-1 expression on B cell (B cell in PBMCs [5]): not increased | PD-1 expression on T cells ([6]; day 3): not suppressed depending on the COR concentration | activation marker-negative (non-activated) T cells ([6]; day 3): not largely increased | number of activated cells ([6]; day 3, data not shown): reduced | ratio of later-phase activated (CD25-positive PD-1-positive) T cells ([6]; CD4 and CD8 T cells, day 3): did not depend on the COR concentration | PD-L1 expression in a B cell ([7]; 0 to 200 μM, TSST-1): showed PD-L1 expression | engraftment ability of transplanted PBMCs (PBMC-NOG-hIL-4-Tg mouse; analysis after 4 weeks): low engraftment ability | specific antibody production (CH401MAP) (PBMC-NOG-hIL-4-Tg mouse; plasma after 4 weeks): suppressed

atezolizumab
PD-1 expression in a T cell [8]: increased | PD-L1 expression in a T cell [8]: reduced | PD-1 expression (humanized mouse): tended to be increased | PD-L1 expression (humanized mouse): tended to be reduced | PD-1 expression in a B cell [7]: increased | engraftment of a B cell (CD19-positive) in spleen cells [9, 10]: reduced | ratio of a T cell (CD3-positive) in spleen cells [9, 10]: increased | ratio of the CD8-positive killer T cell in spleen cells [9, 10]: increased | increase of the tumor (tumor diameter) ([9]; compared with PBS administration group): suppressed | human (killer) T cell infiltration into the tumor mass ([9]; histochemical staining (anti-human CD8), liposome compared with atezolizumab alone): obviously observed
